Results reported in ChEMBL document CHEMBL1201862, “PubChem BioAssay data set” (2004).
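Results reflect a 48-hour exposure of cells in 96-well plates to compound at five concentrations. GI50 is the concentration that inhibits growth by half.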 Active and inactive are the calls of the source. No stated cut-off is given here; in the data, active = GI50 up to about 1.1 µM and inactive = higher.

Legend:
Test in all cases: inhibition of tumour cell growth, NCI panel, 48 h
[1] = test system: KM12
[2] = test system: EKVX
[3] = test system: K562
[4] = test system: Malme-3M
[5] = test system: SW-620
[6] = test system: SK-MEL-2
[7] = test system: SK-MEL-28
[8] = test system: OVCAR-5
[9] = test system: M14
[10] = test system: LOX IMVI
[11] = test system: SK-OV-3
[12] = test system: A549
[13] = test system: M19-MEL
[14] = test system: SK-MEL-5
[15] = test system: TK-10
[16] = test system: NCI-H226
[17] = test system: DU-145
[18] = test system: PC-3
[19] = test system: NCI/ADR-RES
[20] = test system: MCF7

Measured: GI50

CN1c2ccccc2NC(CC(=O)O)C2CC=CN21 (stereo not given)
inactive: [1] > 100 µM | [2] > 100 µM | [3] > 100 µM | [4] > 100 µM | [5] > 100 µM | [6] > 100 µM | [7] > 100 µM | [8] > 100 µM | [9] > 100 µM | [10] > 100 µM | [11] > 100 µM | [12] > 100 µM | [13] > 100 µM | [14] > 100 µM | [15] > 100 µM

O=C(CCCCCCCCCCc1ccccc1)C1=C(O)CCCC1=O
inactive: [1] 30.9 µM | [2] 41.3 µM | [16] 26.1 µM | [3] 19.8 µM | [5] 37.8 µM | [6] 23 µM | [7] 40.4 µM | [8] 33.3 µM | [9] 41.2 µM | [10] 26.2 µM | [11] 35.6 µM | [12] 18.4 µM | [13] 32.7 µM | [14] 18.1 µM | [15] 42.2 µM

CC1=NN(C(=O)c2ccc([N+](=O)[O-])cc2)C(=O)C1/N=N/c1ccccc1C(=O)O (stereo not given)
inactive: [1] > 100 µM | [2] > 100 µM | [16] 32.1 µM | [3] 71.3 µM | [4] > 100 µM | [5] > 100 µM | [6] > 100 µM | [7] > 100 µM | [8] > 100 µM | [11] 53.6 µM | [12] > 100 µM | [13] > 100 µM | [14] > 100 µM | [15] > 100 µM

COc1ccc(C(O)C(c2ccc(OCc3ccccc3)cc2)c2ccc(OCc3ccccc3)cc2)cc1 (stereo not given)
inactive: [1] > 100 µM | [2] > 100 µM | [16] > 100 µM | [3] > 100 µM | [4] > 100 µM | [5] > 100 µM | [6] > 100 µM | [7] > 100 µM | [8] > 100 µM | [9] > 100 µM | [11] > 100 µM | [12] > 100 µM | [13] > 100 µM | [14] > 100 µM | [15] > 100 µM

[N-]=[N+]=Nc1ccccc1-[n+]1noc([O-])c1Br
inactive: [1] > 100 µM | [2] > 100 µM | [16] > 100 µM | [3] > 100 µM | [4] > 100 µM | [5] > 100 µM | [6] > 100 µM | [7] > 100 µM | [9] > 100 µM | [11] > 100 µM | [12] > 100 µM | [13] > 100 µM | [14] > 100 µM | [15] > 100 µM

Cc1cccc(/C=N/N=C(\N)NO)n1
inactive: [1] 14.4 µM | [2] 37.3 µM | [3] 33.5 µM | [4] > 100 µM | [5] 74.5 µM | [6] 50 µM | [7] > 100 µM | [9] 41.5 µM | [10] 5.73 µM | [11] 19.9 µM | [12] 13.4 µM | [13] 68.7 µM | [14] 27.5 µM | [15] > 100 µM

CCC(C)CN1C(=O)NC(C)(Cc2ccccc2)C1=O (stereo not given)
inactive: [1] > 100 µM | [2] > 100 µM | [16] > 100 µM | [4] > 100 µM | [5] > 100 µM | [6] > 100 µM | [7] > 100 µM | [8] > 100 µM | [9] > 100 µM | [10] > 100 µM | [12] > 100 µM | [13] > 100 µM | [14] > 100 µM | [15] > 100 µM

N=C(c1ccccc1)N(O)C1CCCCC1
inactive: [1] > 100 µM | [2] > 100 µM | [16] > 100 µM | [4] 9.38 µM | [5] > 100 µM | [6] > 100 µM | [7] > 100 µM | [8] > 100 µM | [9] > 100 µM | [10] > 100 µM | [12] > 100 µM | [13] > 100 µM | [14] > 100 µM | [15] > 100 µM

O=C1Nc2ccc(Br)cc2/C1=N/S(=O)(=O)O
inactive: [1] 28.4 µM | [2] 29.2 µM | [16] 28.4 µM | [3] 17.3 µM | [4] 26.1 µM | [5] 18.2 µM | [6] 6.61 µM | [7] 30.9 µM | [17] 57.1 µM | [8] 27.6 µM | [9] 38.5 µM | [18] 13.3 µM | [10] 10 µM | [11] 79.8 µM | [12] 26.1 µM | [19] 29.4 µM | [14] 16.1 µM | [15] 14.5 µM | [20] 17.8 µM

O=C1Nc2ccccc2/C1=N/NC(=S)Nc1cccc(Cl)c1
inactive: [1] 7.26 µM | [2] 10.3 µM | [16] 18 µM | [3] 4.7 µM | [4] 19.9 µM | [5] 4.09 µM | [6] 22 µM | [7] 35.2 µM | [17] 22.5 µM | [8] 24.5 µM | [9] 10.4 µM | [18] 8.02 µM | [10] 5.37 µM | [11] 20.7 µM | [12] 7.08 µM | [19] 2.37 µM | [14] 4.57 µM | [15] 31.4 µM | [20] 8.43 µM

O=C1C=CC(=O)[C@H]2C3C=CC(C4C3C3(Cl)C(Cl)=C(Cl)[C@]4(Cl)C3(Cl)Cl)[C@@H]12 (stereo not given in full)
inactive: [1] 4.92 µM | [2] 4.02 µM | [16] 6.47 µM | [3] 3.14 µM | [4] 10.6 µM | [5] 9.57 µM | [6] 7.76 µM | [7] 4.91 µM | [17] 8.97 µM | [8] 7.46 µM | [9] 4.3 µM | [18] 4.94 µM | [10] 3.32 µM | [11] 14.2 µM | [12] 4.03 µM | [19] 5.83 µM | [14] 3.55 µM | [15] 16.8 µM | [20] 3.91 µM

CC(C)(C)N(Cc1ccccc1)C(=O)/C=C\[S+]([O-])c1ccccc1 (stereo not given)
inactive: [1] 5.69 µM | [2] 10.5 µM | [16] 5.07 µM | [3] 2.22 µM | [4] 1.69 µM | [5] 2.15 µM | [6] 2.8 µM | [7] 7.73 µM | [17] 3.85 µM | [8] 13.6 µM | [9] 2.51 µM | [18] 3.56 µM | [10] 1.73 µM | [11] 7.62 µM | [12] 11.5 µM | [19] 2.55 µM | [14] 5.25 µM | [15] 6.75 µM | [20] 2.92 µM

Nc1ccccc1/C(O)=C1/CCOC1=O
inactive: [1] > 100 µM | [2] > 100 µM | [16] > 100 µM | [3] > 100 µM | [4] > 100 µM | [5] > 100 µM | [6] > 100 µM | [7] > 100 µM | [8] > 100 µM | [9] > 100 µM | [11] > 100 µM | [12] > 100 µM | [13] > 100 µM | [15] > 100 µM
